According to ChEMBL document CHEMBL5230156, “Chromosome Region Maintenance 1 (XPO1/CRM1) as an Anticancer Target and Discovery of Its Inhibitor” (J Med Chem, 2021):
Blank lines part the entries; values can stand above or below the compound they belong to.

Legend:
[1] = Inhibition of HIV Rev activity; parameters: species or system Human immunodeficiency virus
[2] = Inhibition of nuclear export in human HeLa cells; type: functional, cell-based
HCT-15 [3] = test: Anticancer activity against human HCT-15 cells assessed as decrease in invading cells at 0.5 uM measured after 36 hrs; type: functional
HCT-15 [4] = test: Anticancer activity against human HCT-15 cells assessed as decrease in invading cells at 1 uM measured after 36 hrs; type: functional
HCT-15 [5] = test: Inhibition of colony formation in human HCT-15 cells at 2 uM incubated for 14 days by crystal violet staining based cell clonogenic assay; type: functional; details: HCT-15, 336 h, time 14 day
HCT-15 [6] = test: Antiproliferative activity against human HCT-15 cells assessed as cell viability measured after 3 hrs by CCK-8 assay; type: functional, cell-based; details: HCT-15, 3 h
HT-29 = test: Antiproliferative activity against human HT-29 cells assessed as cell viability measured after 3 hrs by CCK-8 assay; type: functional, cell-based; details: HT-29, 3 h
HCT-15 [7] = test: Inhibition of colony formation in human HCT-15 cells at 1 uM incubated for 14 days by crystal violet staining based cell clonogenic assay; type: functional; details: HCT-15, 336 h, time 14 day
HCT-15 [8] = test: Inhibition of colony formation in human HCT-15 cells at 4 uM incubated for 14 days by crystal violet staining based cell clonogenic assay; type: functional; details: HCT-15, 336 h, time 14 day
HCT-15 [9] = test: Antitumor activity against CRM1 knockout human HCT-15 cells; type: functional, cell-based
HCT-15 [10] = test: Antitumor activity against wild type human HCT-15 cells; type: functional, cell-based
HeLa = test: Growth inhibition of human HeLa cells measured after 48 hrs by MTT assay; type: functional, cell-based
SGC-7901 [11] = test: Growth inhibition of human SGC-7901 cells assessed as inhibition rate at 5 uM relative to control; type: functional
SGC-7901 [12] = test: Growth inhibition of human SGC-7901 cells assessed as inhibition rate at 150 uM relative to control; type: functional
SGC-7901 [13] = test: Growth inhibition of human SGC-7901 cells assessed as inhibition rate at 100 uM relative to control; type: functional
SGC-7901 [14] = test: Growth inhibition of human SGC-7901 cells assessed as inhibition rate at 50 uM relative to control; type: functional
SMMC-7721 [15] = test: Antitumor activity against human SMMC-7721 cells measured after 24 hrs; type: functional, cell-based; details: SMMC-7721, 24 h
SMMC-7721 [16] = test: Antitumor activity against human SMMC-7721 cells measured after 12 hrs; type: functional, cell-based; details: SMMC-7721, 12 h
SMMC-7721 [17] = test: Antitumor activity against human SMMC-7721 cells measured after 6 hrs; type: functional, cell-based; details: SMMC-7721, 6 h
[18] = Cytotoxicity against human L9981 cells assessed as inhibition of tumor growth measured after 72 hrs by MTT assay; type: functional, cell-based; details: L9981, 72 h
[19] = Cytotoxicity against human NL9980 cells assessed as inhibition of tumor growth measured after 72 hrs by MTT assay; type: functional, cell-based; details: NL9980, 72 h
NSCLC = test: Antitumor activity against human NSCLC cells; type: functional, cell-based
SH-SY5Y = test: Antiproliferative activity against human SH-SY5Y cells by CCK-8 assay; type: functional, cell-based
SK-N-BE(2) = test: Antiproliferative activity against human SK-N-BE(2) cells by CCK-8 assay; type: functional, cell-based; details: SKNBE2

Compound: CC1=C(COCCC(C)(C)C)C(=O)N(Nc2ccc(C(F)(F)F)c(Cl)n2)C1=O
IC50 [1]: 5.5 µM

Compound: CC(C)CCNC/C=C/[S+]([O-])c1cc(C(F)(F)F)cc(C(F)(F)F)c1 (stereo not given)
EC50 [2]: 3.2 µM

Compound: CC1=C(C)C(=O)N(Nc2ccc(Cl)c(Cl)n2)C1=O
inhibition at 0.5 µM (HCT-15 [3]): 44%
inhibition at 1 µM (HCT-15 [4]): 67%
inhibition at 2 µM (HCT-15 [5]): 83.2%
IC50 (HCT-15 [6]): 1.2 µM
IC50 (HT-29): 0.97 µM
inhibition at 1 µM (HCT-15 [7]): 58.5%
inhibition at 4 µM (HCT-15 [8]): 91.4%

Compound: [O-][S+](/C=C/CCN=C=S)c1cc(C(F)(F)F)cc(C(F)(F)F)c1 (stereo not given)
IC50 (HCT-15 [9]): 14 µM
IC50 (HCT-15 [10]): 0.151 µM

Compound: COc1cc(/C=C/C(=O)CC(=O)/C=C/c2ccc(O)c(OC)c2)ccc1O [CURCUMIN]
IC50 (HeLa): 32.4 µM

Compound: C=C1C(=O)[C@]23[C@H](O)[C@H]1CC[C@H]2[C@@]12CO[C@]3(O)[C@@H](O)[C@@H]1C(C)(C)CC[C@@H]2O [ORIDONIN]
inhibition at 5 µM (SGC-7901 [11]): 20%
inhibition at 150 µM (SGC-7901 [12]): 90%
inhibition at 100 µM (SGC-7901 [13]): 75%
inhibition at 50 µM (SGC-7901 [14]): 35%

Compound: CC1=CC(=O)c2c(O)cccc2C1=O [PLUMBAGIN]
IC50 (SMMC-7721 [15]): 2.43 µM
IC50 (SMMC-7721 [16]): 5.41 µM
IC50 (SMMC-7721 [17]): 36.1 µM
IC50 [18]: 9 µM
IC50 [19]: 7.5 µM

The next lines start with the values.

IC50 (HeLa): 16.3 µM
Compound: COc1cc(/C=C/C(=O)N2CCC=CC2=O)cc(OC)c1OC [PIPLARTINE]

IC50 (NSCLC): 0.025 µM
Compound: O=C(/C=C\n1cnc(-c2cc(C(F)(F)F)cc(C(F)(F)F)c2)n1)NNc1cnccn1 [SELINEXOR]

IC50 (SH-SY5Y): 0.3 µM
IC50 (SK-N-BE(2)): 1.4 µM
Compound: O=C(/C=C\n1cnc(-c2cc(C(F)(F)F)cc(C(F)(F)F)c2)n1)NNc1ccccn1 [VERDINEXOR]
